How the values were obtained:
[1] = tested on: C26 murine colon cancer cells; assay: Therapeutic effect on tumor by single administration (pathological H&E analysis); type: in vivo; details: C26 tumor in Balb/C mice, tail vein injection, 50 mg CA4/kg, 72 hours
Description: 6 Balb/C mice (5-6 weeks old, female, body weight of approximately 20 g) were utilized, and C26 murine colon cancer cells were seeded at the right underarm at 2.0×10^6/mouse, respectively. […] The administration dosage was 50 mg CA4/kg body weight. The mice were sacrificed after 72 hours. Tumor was collected, and pathological H&E analysis was performed.

C26 cells = assay: Tumor inhibition effect of polymer-bonded CA4 pharmaceutical compound; type: in vivo; details: C26 tumor in Balb/C mice, 50.0 mg CA4/kg on day 1, 5 and 9, observation until day 17
Description: The administration dosage was 50.0 mg CA4/kg body weight. Tumor was measured 3 times per week and body weights of mice were recorded, and observation was not stopped until day 17.

## COc1ccc(/C=C\c2cc(OC)c(OC)c(OC)c2)cc1OP(=O)([O-])[O-].[Na+].[Na+] [CA4P, Combretastatin A4 phosphate disodium]
[1]
  tumor pathological analysis after single administration: a wide range of recurrence occurred in the tumor
C26 cells
  tumor inhibition rate: 24.0%

Reference: patent US20190142954A1, “POLYMER-BONDED CA4 PHARMACEUTICAL COMPOUND AND PREPARATION METHOD THEREFOR” (priority 2016, published 2019)
